From paper PMC4376724, “Differential Phenotypic and Functional Profiles of TcCA-2 -Specific Cytotoxic CD8^+ T Cells in the Asymptomatic versus Cardiac Phase in Chagasic Patients” (PLoS ONE, 2015)

Tests used:
HLA-A*02:01 = HLA-A*02:01 (Homo sapiens, UniProt P04439, D140Y/D185E/D98H/E176V/E277Q/G131W/G231S/I119V/I121R/I166T/I218V/L300P/L318F/N151K/N90K/P208A/P217A/Q86G/Q94H/R138H/R169H/T345S); test: HLA-A*02:01 binding assay (surface stabilization on TAP-deficient T2 cells); conditions: different peptide concentrations in duplicate, serum-free RPMI, overnight at room temperature, PE anti-HLA-A2 (BB7.2) flow cytometry, referred to 25 μM HB-ENV335-343 peptide
Description: TAP-deficient T2 cells were used for the HLA-A*02:01 binding assays and the K562-A2 cells for the HLA-A*02:01 restriction assay. The cells were cultured in complete RPMI medium supplemented with 10% of inactivated Fetal Calf Serum (iFCS), 2 mM glutamine, and 100 U/ml penicillin. K562-A2 cells, expressing the HLA-A*02:01 molecule were cultured in the presence of […] of G-418, as previously described. The T2 and K562-A2 cells were kindly provided by Dr. Pedro Romero (University of Lausanne) and by Dr Peter Ponsaerts (University of Antwerp, with the permission of Dr. Cedrik Britten from Johanes Gutenberg-University Mainz), respectively.
HLA-A*02:01 surface stabilization test was carried out as described in [42]. Briefly, TAP-deficient T2 cells were loaded with different concentrations of each peptide, in duplicate in serum-free RPMI medium, and incubated overnight at room temperature. Afterwards, the cells were stained with a PE-labeled HLA-A2-specific antibody (BB7.2 clone, BD biosciences) and analyzed by flow cytometry. The high-affinity HLA-A*02:01-binding peptide […] ([…]) was included as internal standard. Affinity data were calculated as the percentage of maximum complex stabilization, as described in [44]. The following equation was used: % of maximal stabilization = 100 x [(mean fluorescence with peptide)–(background mean fluorescence)]/[(mean fluorescence with 25 μM HBENV335-343 peptide)–(background mean fluorescence)]. Background value was obtained with cells incubated in the same conditions without peptide.
The percentage of maximal binding stabilization of these eight TcCA-2 peptides was evaluated using TAP-deficient T2 cells and different concentrations of each peptide. […] The maximal binding affinity is shown for each peptide in Table 1.

[1] = test system: PBMCs from asymptomatic HLA-A*02:01 Chagas disease patients; test: HLA-A*02:01 restriction assay: peptide-pulsed K562-A2 cells as APC, IFN-γ secretion by patient PBMC; assay type: cell-based, human; conditions: K562-A2 cells pulsed with 1 mM peptide 1 h, co-cultured 30 h with PBMC of asymptomatic (IND) patients; positive = IFN-γ at least two folds un-stimulated cells

Row | Sequence | % maximal stabilization (HLA-A*02:01) [%] | Chagas disease patient: patients with positive response in relation with the total number of patients per assay [1]
1 | FANAPGVAQV [TcCA-2_452-461] | 46.23 | 0/10
2 | SAFGNHASTV [TcCA-2_550-559] | 19.07 | 0/9
3 | SILQNVHATL [TcCA-2_489-498] | 36.02 | 0/8
4 | AIGGGKLPAL [TcCA-2_531-540] | 20.89 | 0/9
